This assay deals with L1210 leukemia ip in BDF1 mice, survival T/C. The assay is described as follows: NCI In Vivo Anticancer Drug Screen. Data for tumor model L1210 Leukemia (intraperitoneal) in B6D2F1 (BDF1) mice. As to conditions: endpoint: mean survival time, higher = longer survival. In outline: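 Ratio derived from survival: compound-dosed mice over vehicle-dosed mice, all bearing a transplantable tumor.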

Setting [1] is: dose: 100.0 mg/kg/injection, schedule: Q04DX002 (ip), vehicle: saline with Tween-80.
[2] abbreviates: dose: 200.0 mg/kg/injection, schedule: Q04DX002 (ip), vehicle: saline with Tween-80.
The mark [3] stands for this setting: dose: 400.0 mg/kg/injection, schedule: Q04DX002 (ip), vehicle: saline with Tween-80.
Where [4] appears, read: dose: 100.0 mg/kg/injection, schedule: Q04DX002 (ip), vehicle: Klucel (hydroxypropylcellulose) (HPC).
Setting [5] is: dose: 200.0 mg/kg/injection, schedule: Q04DX002 (ip), vehicle: Klucel (hydroxypropylcellulose) (HPC).
[6] abbreviates: dose: 400.0 mg/kg/injection, schedule: Q04DX002 (ip), vehicle: Klucel (hydroxypropylcellulose) (HPC).
[7] abbreviates: dose: 100.0 mg/kg/injection, schedule: Q01DX001 (ip), vehicle: saline.
The mark [8] stands for this setting: dose: 200.0 mg/kg/injection, schedule: Q01DX001 (ip), vehicle: saline.
Where [9] appears, read: dose: 400.0 mg/kg/injection, schedule: Q01DX001 (ip), vehicle: saline.

The structures appear in SMILES notation. Values joined by “and” are separate entries in the source; they are usually repeats but may differ in a detail not shown here. Equal values may be shown once. Toxic doses and inconclusive results are not listed.

For the molecule `O=C([O][Bi]([c]1ccccc1)[c]1ccccc1)C(F)(F)F`, the T/C is 95 % of control under setting [1], 95 % of control under setting [2] and 92 % of control under setting [3].

For the molecule `CC[n+]1ccc(-c2ccc(NC(=O)c3ccc(C(=O)Nc4ccc(-c5cc[n+](CC)cc5)cc4)cc3)cc2)cc1`, the T/C (dose: 2.5 mg/kg/injection, schedule: Q01DX015 (ip), vehicle: carboxymethylcellulose (CMC)) is 224 % of control; the T/C (dose: 3.7 mg/kg/injection, schedule: Q01DX001 (ip), vehicle: carboxymethylcellulose (CMC)) was 118 % of control; the T/C (dose: 5.0 mg/kg/injection, schedule: Q01DX015 (ip), vehicle: carboxymethylcellulose (CMC)) is 157 % of control; the T/C (dose: 7.5 mg/kg/injection, schedule: Q01DX001 (ip), vehicle: carboxymethylcellulose (CMC)) was 176 % of control; the T/C (dose: 10.0 mg/kg/injection, schedule: Q01DX015 (ip), vehicle: carboxymethylcellulose (CMC)) was 123 % of control; the T/C (dose: 15.0 mg/kg/injection, schedule: Q01DX001 (ip), vehicle: carboxymethylcellulose (CMC)) was 163 % of control. Besides, the T/C by setting is: (dose: 20.0 mg/kg/injection, schedule: Q01DX015 (ip), vehicle: carboxymethylcellulose (CMC)) 94 % of control; (dose: 30.0 mg/kg/injection, schedule: Q01DX001 (ip), vehicle: carboxymethylcellulose (CMC)) 177 % of control and 194 % of control; (dose: 30.0 mg/kg/injection, schedule: Q01DX015 (ip), vehicle: carboxymethylcellulose (CMC)) 86 % of control; (dose: 40.0 mg/kg/injection, schedule: Q01DX001 (ip), vehicle: carboxymethylcellulose (CMC)) 192 % of control and 296 % of control; (dose: 60.0 mg/kg/injection, schedule: Q01DX001 (ip), vehicle: carboxymethylcellulose (CMC)) 211 % of control and 305 % of control and 307 % of control; (dose: 90.0 mg/kg/injection, schedule: Q01DX001 (ip), vehicle: carboxymethylcellulose (CMC)) 157 % of control and 228 % of control. Further, the T/C is 103 % of control (dose: 150.0 mg/kg/injection, schedule: Q01DX001 (ip), vehicle: carboxymethylcellulose (CMC)) and 91 % of control (dose: 225.0 mg/kg/injection, schedule: Q01DX001 (ip), vehicle: carboxymethylcellulose (CMC)).

Regarding `COc1ccc(C(=O)NC(=O)Nc2ccccc2)cc1`, the T/C (dose: 15.0 mg/kg/injection, schedule: Q01DX001 (ip), vehicle: saline) is 97 % of control; the T/C (dose: 30.0 mg/kg/injection, schedule: Q01DX001 (ip), vehicle: saline) is 91 % of control; the T/C (dose: 60.0 mg/kg/injection, schedule: Q01DX001 (ip), vehicle: saline) is 92 % of control.

On to `CC(C)C(CN)(CCCN1CCCC1)c1cccc2ccccc12` (centres undefined), for which the T/C (dose: 100.0 mg/kg/injection, schedule: Q04DX003 (ip), vehicle: saline with Tween-80) is 102 % of control.

Turning to `CC(=O)O[C@H]1[C@H]2O[C@]23[C@@H]2CC[C@@H]4C[C@@H](OC(=O)CCC(=O)O)CC[C@]4(C)[C@H]2CC[C@]3(C)[C@H]1c1ccc(=O)oc1`, the T/C is, setting by setting: (dose: 0.13 mg/kg/injection, schedule: Q01DX009 (ip), vehicle: Klucel (hydroxypropylcellulose) (HPC)) 100 % of control; (dose: 0.25 mg/kg/injection, schedule: Q01DX009 (ip), vehicle: Klucel (hydroxypropylcellulose) (HPC)) 97 % of control; (dose: 0.5 mg/kg/injection, schedule: Q01DX009 (ip), vehicle: Klucel (hydroxypropylcellulose) (HPC)) 93 % of control; (dose: 1.0 mg/kg/injection, schedule: Q01DX009 (ip), vehicle: Klucel (hydroxypropylcellulose) (HPC)) 110 % of control.

Take `Cc1nc2cc(N=Cc3ccc(N(CCCl)CCCl)cc3F)ccc2n1C`: the T/C under setting [4] was 104 % of control, the T/C under setting [5] is 101 % of control and the T/C under setting [6] was 104 % of control.

Consider `CC(C)CCCC(C)C1CCC2C3CC4C(F)(Cl)C45CC4(CCC5(C)C3CCC12C)OCCO4` (centres undefined), for which the T/C is, setting by setting: (dose: 100.0 mg/kg/injection, schedule: Q04DX002 (ip), vehicle: other) 87 % of control; (dose: 200.0 mg/kg/injection, schedule: Q04DX002 (ip), vehicle: other) 114 % of control; (dose: 400.0 mg/kg/injection, schedule: Q04DX002 (ip), vehicle: other) 93 % of control.

As for `CN(C)c1ccc(/C=N/NC(=O)CNC(=O)c2ccc(Cl)cc2Cl)cc1`, the T/C is 86 % of control (dose: 50.0 mg/kg/injection, schedule: Q01DX009 (ip), vehicle: saline with Tween-80) and 88 % of control (dose: 100.0 mg/kg/injection, schedule: Q01DX009 (ip), vehicle: saline with Tween-80).

For the molecule `CCC[CH2][Sn]1([CH2]CCC)[CH2]CC(=O)[O]1`, the T/C is, setting by setting: under setting [1], 103 % of control; under setting [2], 95 % of control; under setting [3], 92 % of control.

For `O=C(NC(Cc1ccc(O)cc1)C(=O)O)SCc1ccccc1` (centres undefined), the T/C (dose: 100.0 mg/kg/injection, schedule: Q01DX001 (ip), vehicle: other) is 100 % of control; the T/C (dose: 200.0 mg/kg/injection, schedule: Q01DX001 (ip), vehicle: other) is 102 % of control; the T/C (dose: 400.0 mg/kg/injection, schedule: Q01DX001 (ip), vehicle: other) was 102 % of control.

`O=C1c2cccc3cc([N+](=O)[O-])cc(c23)C(=O)N1C(CO)(CO)CO`: the T/C is, setting by setting: (dose: 100.0 mg/kg/injection, schedule: Q04DX002 (ip), vehicle: saline) 101 % of control; (dose: 200.0 mg/kg/injection, schedule: Q04DX002 (ip), vehicle: saline) 101 % of control; (dose: 400.0 mg/kg/injection, schedule: Q04DX002 (ip), vehicle: saline) 99 % of control.

As to `CC1(C)OC2C(CNS(C)(=O)=O)OC(n3cnc4c(N)ncnc43)C2O1` (centres undefined), the T/C is, setting by setting: under setting [7], 102 % of control; under setting [8], 98 % of control; under setting [9], 101 % of control.

For the molecule `Cc1ncc(CS(=O)(=O)O)c(N)n1`, the T/C was 92 % of control (dose: 100.0 mg/kg/injection, schedule: Q01DX009 (ip), vehicle: Klucel (hydroxypropylcellulose) (HPC)); 97 % of control (dose: 100.0 mg/kg/injection, schedule: Q04DX003 (ip), vehicle: Klucel (hydroxypropylcellulose) (HPC)); 100 % of control (dose: 200.0 mg/kg/injection, schedule: Q01DX009 (ip), vehicle: Klucel (hydroxypropylcellulose) (HPC)); 98 % of control (dose: 200.0 mg/kg/injection, schedule: Q04DX003 (ip), vehicle: Klucel (hydroxypropylcellulose) (HPC)); 98 % of control (dose: 400.0 mg/kg/injection, schedule: Q01DX009 (ip), vehicle: Klucel (hydroxypropylcellulose) (HPC)); 97 % of control (dose: 400.0 mg/kg/injection, schedule: Q04DX003 (ip), vehicle: Klucel (hydroxypropylcellulose) (HPC)).

In the case of `Nc1cc(N)nc(C(F)(F)F)n1`, the T/C by setting is: (dose: 50.0 mg/kg/injection, schedule: Q01DX Z (ip), vehicle: methylcellulose (MC)) 102 % of control; (dose: 100.0 mg/kg/injection, schedule: Q01DX Z (ip), vehicle: methylcellulose (MC)) 94 % of control.

For `COc1ccc(-n2cnc3c(=O)[nH]c(N)nc32)cc1`, the T/C under setting [8] was 92 % of control.

Turning to `Cc1c(O)cccc1N(C)C`, the T/C runs as follows: under setting [7], 112 % of control; (dose: 100.0 mg/kg/injection, schedule: Q04DX003 (ip), vehicle: acetone) 111 % of control; under setting [8], 105 % of control; (dose: 200.0 mg/kg/injection, schedule: Q04DX003 (ip), vehicle: acetone) 106 % of control; (dose: 200.0 mg/kg/injection, schedule: Q04DX003 (ip), vehicle: saline) 88 % of control; under setting [9], 91 % of control. Moreover, the T/C reads like this: (dose: 400.0 mg/kg/injection, schedule: Q04DX003 (ip), vehicle: acetone) 102 % of control; (dose: 400.0 mg/kg/injection, schedule: Q04DX003 (ip), vehicle: saline) 90 % of control.

For `CC(=O)OC1CCC2(C)C(=CCC3C2CCC2(C)C3CC3C2C(c2ccccc2)=NN3c2ccccc2)C1` (centres undefined), the T/C was 93 % of control (dose: 6.0 mg/kg/injection, schedule: Q04DX002 (ip), vehicle: Klucel (hydroxypropylcellulose) (HPC)); 104 % of control (dose: 12.5 mg/kg/injection, schedule: Q04DX002 (ip), vehicle: Klucel (hydroxypropylcellulose) (HPC)); 96 % of control (dose: 25.0 mg/kg/injection, schedule: Q04DX002 (ip), vehicle: Klucel (hydroxypropylcellulose) (HPC)); 96 % of control (dose: 50.0 mg/kg/injection, schedule: Q04DX002 (ip), vehicle: Klucel (hydroxypropylcellulose) (HPC)).

For `O=C1NC(=O)c2ccc(Br)c3cccc1c23`, the T/C was 96 % of control under setting [4], 96 % of control under setting [5] and 93 % of control under setting [6].

The values above are taken from PubChem BioAssay AID248 (DTP/NCI, 2004).
